According to patent US11413264B2, “Carbamoyl phenylalaninol analogs and uses thereof” (Jazz Pharmaceuticals Ireland Limited, priority 2017, dated 2022):
Where a name gives a salt, the structure may show the parent alone. Read-outs that look alike come from different tables or passages of the source.

How the values were obtained:
[1] = target: T1, alpha2A adrenergic receptor (Alpha2A) (Homo sapiens, UniProt P08913); test: Competitive radioligand binding assay, α2A (antagonist radioligand); conditions: compound at 10 μM
T1 construct: expressed in transfected cells; host or cells: CHO cells (membrane fractions)
T1 sequence (P08913 1-465): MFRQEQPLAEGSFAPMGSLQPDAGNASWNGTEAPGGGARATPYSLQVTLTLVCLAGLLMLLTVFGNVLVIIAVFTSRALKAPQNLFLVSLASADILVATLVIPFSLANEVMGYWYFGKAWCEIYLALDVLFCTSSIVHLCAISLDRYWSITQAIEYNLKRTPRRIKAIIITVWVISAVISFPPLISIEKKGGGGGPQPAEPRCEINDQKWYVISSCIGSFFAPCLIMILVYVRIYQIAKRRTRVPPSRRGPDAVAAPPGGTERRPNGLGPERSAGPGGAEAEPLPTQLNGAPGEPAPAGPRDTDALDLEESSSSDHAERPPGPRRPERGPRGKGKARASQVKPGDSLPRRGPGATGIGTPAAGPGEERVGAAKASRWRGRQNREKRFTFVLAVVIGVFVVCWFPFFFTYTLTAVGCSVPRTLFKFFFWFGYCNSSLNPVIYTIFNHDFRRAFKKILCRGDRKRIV
Description: (§1) Compounds of the invention were tested for pharmacological activity in comparison to APC. Eight binding assays were carried out to provide a binding profile for each compound, including binding to dopamine transporter (DAT), norepinephrine transporter (NET), serotonin (5-HT) transporter (SERT), alpha2A adrenergic receptor (Alpha2A), alpha2C adrenergic receptor (Alpha2C), D2S dopamine receptor (D2S), D2L dopamine receptor (D2L), and vesicular monoamine transporter (VMAT2). Competitive binding assays using a radiolabeled ligand were carried out with each compound at 10 μM. The radioligand for each target was as follows: DAT—BTCP, NET—nisoxetine, SERT—imipramine, Alpha2A—yohimbine, Alpha2C—yohimbine, D2S—7-OH-DPAT, D2L—methylspiperone, VMAT2—tetrabenazine. The source of the receptors and transporters were prepared cell membrane fractions.

[2] = target: T2, dopamine transporter (DAT) (Homo sapiens, UniProt Q01959); test: Competitive radioligand binding assay, dopamine transporter (antagonist radioligand); conditions: compound at 10 μM; for binding to the dopamine transporter (in words): summary
T2 construct: expressed in transfected cells; host or cells: CHO cells (membrane fractions)
T2 sequence (Q01959 whole entry): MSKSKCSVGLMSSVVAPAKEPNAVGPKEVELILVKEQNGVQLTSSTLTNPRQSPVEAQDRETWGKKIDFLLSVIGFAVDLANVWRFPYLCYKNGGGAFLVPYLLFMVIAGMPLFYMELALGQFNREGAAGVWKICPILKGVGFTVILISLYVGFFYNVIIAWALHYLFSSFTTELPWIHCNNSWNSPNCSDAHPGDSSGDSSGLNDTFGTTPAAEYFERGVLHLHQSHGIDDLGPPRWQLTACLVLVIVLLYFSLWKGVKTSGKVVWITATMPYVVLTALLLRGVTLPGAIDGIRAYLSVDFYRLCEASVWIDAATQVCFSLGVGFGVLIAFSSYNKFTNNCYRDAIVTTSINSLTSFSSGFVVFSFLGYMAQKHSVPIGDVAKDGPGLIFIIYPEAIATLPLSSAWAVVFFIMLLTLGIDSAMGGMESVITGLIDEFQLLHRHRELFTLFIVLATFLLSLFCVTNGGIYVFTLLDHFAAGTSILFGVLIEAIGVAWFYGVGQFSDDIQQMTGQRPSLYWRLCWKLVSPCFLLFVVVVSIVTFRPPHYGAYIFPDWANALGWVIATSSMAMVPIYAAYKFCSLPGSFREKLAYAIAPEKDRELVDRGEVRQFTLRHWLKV
Description: as §1

[3] = target: T3, D2L dopamine receptor (D2L) (Homo sapiens, UniProt P14416); test: Competitive radioligand binding assay, D2L (antagonist radioligand); conditions: compound at 10 μM
T3 construct: expressed in transfected cells; host or cells: HEK-293 cells (membrane fractions)
T3 sequence (P14416 whole entry): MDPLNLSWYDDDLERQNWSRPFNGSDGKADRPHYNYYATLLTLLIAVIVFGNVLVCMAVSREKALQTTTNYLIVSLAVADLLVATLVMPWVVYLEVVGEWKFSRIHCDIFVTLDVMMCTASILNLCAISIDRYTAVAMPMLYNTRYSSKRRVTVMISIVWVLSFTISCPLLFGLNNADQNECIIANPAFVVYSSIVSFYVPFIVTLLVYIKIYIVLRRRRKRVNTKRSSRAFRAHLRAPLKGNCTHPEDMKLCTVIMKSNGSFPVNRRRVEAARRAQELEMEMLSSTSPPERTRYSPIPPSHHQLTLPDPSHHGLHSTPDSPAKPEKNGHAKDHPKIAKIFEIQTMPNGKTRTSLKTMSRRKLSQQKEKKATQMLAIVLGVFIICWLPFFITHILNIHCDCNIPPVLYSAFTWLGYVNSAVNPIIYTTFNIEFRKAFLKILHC
Description: as §1

[4] = target: T4, vesicular monoamine transporter (VMAT2) (Rattus norvegicus, UniProt Q01827); test: Competitive radioligand binding assay, VMAT2 transporter (antagonist radioligand); conditions: compound at 10 μM
T4 construct: Rat brain; from tissue; host or cells: rat brain minus cerebellum, membrane fraction
T4 sequence (Q01827 whole entry): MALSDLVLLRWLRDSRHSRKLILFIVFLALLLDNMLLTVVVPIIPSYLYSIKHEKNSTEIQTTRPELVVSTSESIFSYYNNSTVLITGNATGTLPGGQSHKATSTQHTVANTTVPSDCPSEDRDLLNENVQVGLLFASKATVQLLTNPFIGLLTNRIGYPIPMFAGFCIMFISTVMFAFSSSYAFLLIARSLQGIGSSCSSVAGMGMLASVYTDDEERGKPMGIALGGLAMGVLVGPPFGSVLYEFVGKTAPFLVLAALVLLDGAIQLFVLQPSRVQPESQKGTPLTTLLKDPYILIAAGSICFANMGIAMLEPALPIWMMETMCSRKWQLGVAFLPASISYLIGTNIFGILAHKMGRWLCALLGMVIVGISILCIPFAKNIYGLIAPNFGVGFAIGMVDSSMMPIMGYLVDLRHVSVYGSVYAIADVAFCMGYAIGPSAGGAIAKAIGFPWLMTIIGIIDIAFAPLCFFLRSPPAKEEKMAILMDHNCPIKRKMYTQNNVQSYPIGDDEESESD
Description: as §1

[5] = target: T5, norepinephrine transporter (NET) (Homo sapiens, UniProt P23975); test: Competitive radioligand binding assay, norepinephrine transporter (antagonist radioligand); conditions: compound at 10 μM; for binding to the norepinephrine transporter (in words): summary
T5 construct: expressed in transfected cells; host or cells: CHO cells (membrane fractions)
T5 sequence (P23975 whole entry): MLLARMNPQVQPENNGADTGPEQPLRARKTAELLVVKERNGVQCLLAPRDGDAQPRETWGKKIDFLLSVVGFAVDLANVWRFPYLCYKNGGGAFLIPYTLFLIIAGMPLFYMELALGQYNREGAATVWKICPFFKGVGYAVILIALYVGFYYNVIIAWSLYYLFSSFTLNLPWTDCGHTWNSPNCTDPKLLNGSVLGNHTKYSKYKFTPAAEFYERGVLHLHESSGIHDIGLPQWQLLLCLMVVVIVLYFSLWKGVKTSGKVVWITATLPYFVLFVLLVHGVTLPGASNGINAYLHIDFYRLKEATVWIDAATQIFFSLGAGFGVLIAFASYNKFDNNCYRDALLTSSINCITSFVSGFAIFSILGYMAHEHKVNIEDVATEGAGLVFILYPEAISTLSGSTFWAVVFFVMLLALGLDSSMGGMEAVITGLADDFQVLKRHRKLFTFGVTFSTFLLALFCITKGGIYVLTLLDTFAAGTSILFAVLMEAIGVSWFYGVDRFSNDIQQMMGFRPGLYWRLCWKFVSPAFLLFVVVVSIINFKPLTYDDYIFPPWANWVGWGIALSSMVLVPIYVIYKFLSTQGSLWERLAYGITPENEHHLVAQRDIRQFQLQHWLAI
Description: as §1

[6] = target: T6, D2S dopamine receptor (D2S) (Homo sapiens, UniProt P14416); test: Competitive radioligand binding assay, D2S (agonist radioligand); conditions: compound at 10 μM
T6 construct: expressed in transfected cells; host or cells: HEK-293 cells (membrane fractions)
T6 sequence (P14416 1-414 isoform P14416-2): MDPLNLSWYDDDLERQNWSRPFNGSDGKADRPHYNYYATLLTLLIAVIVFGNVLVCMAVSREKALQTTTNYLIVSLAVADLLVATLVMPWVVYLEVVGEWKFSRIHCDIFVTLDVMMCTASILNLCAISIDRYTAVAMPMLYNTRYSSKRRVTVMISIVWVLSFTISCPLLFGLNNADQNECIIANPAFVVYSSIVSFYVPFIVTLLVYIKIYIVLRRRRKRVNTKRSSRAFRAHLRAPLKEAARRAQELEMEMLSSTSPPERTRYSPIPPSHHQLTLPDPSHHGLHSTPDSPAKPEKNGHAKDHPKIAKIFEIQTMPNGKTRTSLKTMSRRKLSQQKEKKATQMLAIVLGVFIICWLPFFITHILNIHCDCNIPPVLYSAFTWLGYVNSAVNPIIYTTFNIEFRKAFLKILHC
Description: as §1

[7] = target: T7, serotonin (5-HT) transporter (SERT) (Homo sapiens, UniProt P31645); test: Competitive radioligand binding assay, 5-HT transporter (antagonist radioligand); conditions: compound at 10 μM
T7 construct: expressed in transfected cells; host or cells: CHO cells (membrane fractions)
T7 sequence (P31645 whole entry): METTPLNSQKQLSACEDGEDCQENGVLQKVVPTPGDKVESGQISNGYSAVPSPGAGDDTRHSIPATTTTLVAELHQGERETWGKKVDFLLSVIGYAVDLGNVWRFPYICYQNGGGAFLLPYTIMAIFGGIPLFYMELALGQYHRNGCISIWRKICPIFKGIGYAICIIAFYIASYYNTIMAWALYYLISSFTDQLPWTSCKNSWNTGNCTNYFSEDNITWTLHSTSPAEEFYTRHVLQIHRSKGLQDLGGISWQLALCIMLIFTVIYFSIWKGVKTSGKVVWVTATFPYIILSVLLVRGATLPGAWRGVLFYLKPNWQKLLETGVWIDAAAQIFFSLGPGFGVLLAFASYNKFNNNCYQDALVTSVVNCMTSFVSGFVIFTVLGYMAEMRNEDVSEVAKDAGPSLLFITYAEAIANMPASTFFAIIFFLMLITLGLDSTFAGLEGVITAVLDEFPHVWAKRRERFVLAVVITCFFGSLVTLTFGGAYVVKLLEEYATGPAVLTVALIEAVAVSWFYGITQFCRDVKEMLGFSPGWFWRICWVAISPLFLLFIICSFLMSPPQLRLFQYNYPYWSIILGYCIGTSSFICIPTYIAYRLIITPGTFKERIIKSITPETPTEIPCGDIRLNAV
Description: as §1

[8] = target: T8, alpha2C adrenergic receptor (Alpha2C) (Homo sapiens, UniProt P18825); test: Competitive radioligand binding assay, α2C (antagonist radioligand); conditions: compound at 10 μM
T8 construct: expressed in transfected cells; host or cells: CHO cells (membrane fractions)
T8 sequence (P18825 1-462): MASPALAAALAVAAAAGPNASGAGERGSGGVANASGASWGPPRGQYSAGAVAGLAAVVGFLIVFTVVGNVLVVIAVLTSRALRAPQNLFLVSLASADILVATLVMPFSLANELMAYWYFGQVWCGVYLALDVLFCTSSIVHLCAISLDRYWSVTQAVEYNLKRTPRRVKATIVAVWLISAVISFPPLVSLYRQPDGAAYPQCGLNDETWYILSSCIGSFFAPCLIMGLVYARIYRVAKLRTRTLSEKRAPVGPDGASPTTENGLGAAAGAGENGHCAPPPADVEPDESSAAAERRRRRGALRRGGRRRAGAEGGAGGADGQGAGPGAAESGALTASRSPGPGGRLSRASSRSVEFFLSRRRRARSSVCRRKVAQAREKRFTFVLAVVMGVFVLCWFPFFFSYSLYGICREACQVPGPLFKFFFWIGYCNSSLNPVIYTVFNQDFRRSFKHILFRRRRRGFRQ
Description: as §1

[9] = 1st individual result, read-out: % inhibition of control specific binding, 1st
[10] = 2nd individual result, read-out: % inhibition of control specific binding, 2nd
[11] = mean, read-out: % inhibition of control specific binding, Mean
[12] = Dopamine transporter, 1st individual result, read-out: % inhibition of control specific binding, 1st
[13] = Dopamine transporter, 2nd individual result, read-out: % inhibition of control specific binding, 2nd
[14] = Dopamine transporter, mean, read-out: % inhibition of control specific binding, Mean
[15] = [3H]BTCP 4 nM, human recombinant (CHO cells), read-out: % Inhibition of Binding at Each Transporter or Receptor Target, DAT
[16] = D2L, 1st individual result, read-out: % inhibition of control specific binding, 1st
[17] = D2L, 2nd individual result, read-out: % inhibition of control specific binding, 2nd
[18] = D2L, mean, read-out: % inhibition of control specific binding, Mean
[19] = [3H]methyl-spiperone 0.3 nM, human recombinant (HEK-293 cells), read-out: % Inhibition of Binding at Each Transporter or Receptor Target, D2L
[20] = VMAT2 transporter, single value, read-out: % inhibition of control specific binding, 1st
[21] = [3H]dihydrotetrabenazine 10 nM, rat brain (minus cerebellum), read-out: % Inhibition of Binding at Each Transporter or Receptor Target, VMAT2
[22] = Norepinephrine transporter, 1st individual result, read-out: % inhibition of control specific binding, 1st
[23] = Norepinephrine transporter, 2nd individual result, read-out: % inhibition of control specific binding, 2nd
[24] = Norepinephrine transporter, mean, read-out: % inhibition of control specific binding, Mean
[25] = [3H]nisoxetine 1 nM, human recombinant (CHO cells), read-out: % Inhibition of Binding at Each Transporter or Receptor Target, NET
[26] = D2S, 1st individual result, read-out: % inhibition of control specific binding, 1st
[27] = D2S, 2nd individual result, read-out: % inhibition of control specific binding, 2nd
[28] = D2S, mean, read-out: % inhibition of control specific binding, Mean
[29] = [3H]7-OH-DPAT 1 nM, human recombinant (HEK-293 cells), read-out: % Inhibition of Binding at Each Transporter or Receptor Target, D2S
[30] = 5-HT transporter, 1st individual result, read-out: % inhibition of control specific binding, 1st
[31] = 5-HT transporter, 2nd individual result, read-out: % inhibition of control specific binding, 2nd
[32] = 5-HT transporter, mean, read-out: % inhibition of control specific binding, Mean
[33] = [3H]imipramine 2 nM, human recombinant (CHO cells), read-out: % Inhibition of Binding at Each Transporter or Receptor Target, SERT

Row | SMILES | inhibition at 10 µM [1, 9] | inhibition at 10 µM [1, 10] | inhibition at 10 µM [1, 11] | inhibition at 10 µM [2, 12] | inhibition at 10 µM [2, 13] | inhibition at 10 µM [2, 14] | inhibition at 10 µM [2, 15] | binding to the dopamine transporter (in words) [2] | inhibition at 10 µM [3, 16] | inhibition at 10 µM [3, 17] | inhibition at 10 µM [3, 18] | inhibition at 10 µM [3, 19] | inhibition at 10 µM [4, 20] | inhibition at 10 µM [4, 21] | inhibition at 10 µM [5, 22] | inhibition at 10 µM [5, 23] | inhibition at 10 µM [5, 24] | inhibition at 10 µM [5, 25] | inhibition at 10 µM [6, 26] | inhibition at 10 µM [6, 27] | other results
1 | NC(=O)CC[C@H](N)Cc1ccccc1 [Compound 4, (S)-4-Amino-5-phenylpentanamide hydrochloride] | 7.8% | -9.3% | -0.8% | 52.9% | 60% | 56.5% | 56.5% | substantial binding | 1.4% | 0.8% | 1.1% | 1.1% | 0% | 0% | 7% | -21.9% | -7.5% | -7.5% | -8.2% | -3.7% | inhibition at 10 µM [6, 28]: -6%; inhibition at 10 µM [6, 29]: -6%; inhibition at 10 µM [7, 30]: -2.9%; inhibition at 10 µM [7, 31]: 1.8%; inhibition at 10 µM [7, 32]: -0.5%; inhibition at 10 µM [7, 33]: -0.5%; inhibition at 10 µM [8, 9]: 3.4%; inhibition at 10 µM [8, 10]: 2.3%; inhibition at 10 µM [8, 11]: 2.9%
2 | NC(=S)OC[C@H](N)Cc1ccccc1 [Compound 8, (R)—O-(2-Amino-3-phenylpropyl) carbamothioate dihydrochloride] | 60% | 61.3% | 60.6% | 67.9% | 95.4% | 81.6% | 81.6% | substantial | -0.5% | 2.7% | 1.1% | 1.1% | 6% | 6% | 29.5% | 46.1% | 37.8% | 37.8% | 33.5% | 21.4% | binding to the norepinephrine transporter (in words) [5]: substantial binding; inhibition at 10 µM [6, 28]: 27.4%; inhibition at 10 µM [6, 29]: 27.4%; inhibition at 10 µM [7, 30]: -1.9%; inhibition at 10 µM [7, 31]: -2.4%; inhibition at 10 µM [7, 32]: -2.1%; inhibition at 10 µM [7, 33]: -2.1%; inhibition at 10 µM [8, 9]: 50.6%; inhibition at 10 µM [8, 10]: 47%; inhibition at 10 µM [8, 11]: 48.8%
3 | N[C@@H](COS(N)(=O)=O)Cc1ccccc1 [Compound 9, (R)-2-Amino-3-phenylpropyl sulfamate hydrochloride] | 65.7% | 70.8% | 68.3% | 26.4% | 44% | 35.2% | 35.2% | substantial | -2.2% | -6.8% | -4.5% | -4.5% | 16% | 16% | -3.7% | 14% | 5.1% | 5.1% | 45.3% | 33.7% | binding to the norepinephrine transporter (in words) [5]: substantial binding; inhibition at 10 µM [6, 28]: 39.5%; inhibition at 10 µM [6, 29]: 39.5%; inhibition at 10 µM [7, 30]: -1.7%; inhibition at 10 µM [7, 31]: -3.7%; inhibition at 10 µM [7, 32]: -2.7%; inhibition at 10 µM [7, 33]: -2.7%; inhibition at 10 µM [8, 9]: 65.8%; inhibition at 10 µM [8, 10]: 60.9%; inhibition at 10 µM [8, 11]: 63.4%
